Here are results for ten compounds from patent US10131669B2, “Pyrazolopyrimidine compounds” (Pfizer Inc., priority 2014, dated 2018).

Holding throughout (format): biochemical
Assay [1] deals with T1, Human PDE4C1 (Homo sapiens, UniProt Q08493).
T1 construct: His6 (N); FLAG (C); made in house; host or cells: insect cells (baculovirus, pFastBac)
Kind of assay: PDE4C1 Scintillation Proximity Assay (SPA), inhibition of enzyme activity. The conditions noted are these: geometric mean of 2-7 determinations unless otherwise indicated (b: ≥8 determinations; c: single determination), 1 μM cAMP, 30 min at 25° C., read-out: Human PDE4C FL. In short, it runs like this: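 Human recombinant FLAG/His-purified PDE4C1 from insect cells at 40 pM, with 1 μM cAMP (3H-cAMP tracer) in Tris pH 7.5, 1.3 mM MgCl2, 0.01% Brij, ~20% substrate turnover. Incubation 30 min at 25° C with a range of inhibitor concentrations. Stopped with yttrium silicate SPA beads and read by scintillation after 8 h settling.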
Background: Scintillation proximity formats need no separation of bound from free tracer.

The target of assay [2] is T2, Human PDE4A3 (Homo sapiens, UniProt P27815).
T2 construct: His6 (N); FLAG (C); made in house; host or cells: insect cells (baculovirus, pFastBac)
Kind of assay: PDE4A3 Scintillation Proximity Assay (SPA), inhibition of enzyme activity. The conditions noted are these: geometric mean of 2-7 determinations unless otherwise indicated (b: ≥8 determinations; c: single determination), 1 μM cAMP, 30 min at 25° C., read-out: Human PDE4A FL. The essentials: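 Human PDE4A3 (aa 2–825, His6/FLAG-tagged, insect-cell expressed) at 80 pM hydrolyses 1 μM cAMP including 20 nM 3H-cAMP, ~20% conversion. Buffer is 50 mM Tris pH 7.5, 1.3 mM MgCl2, 0.01% Brij. Incubated 30 min at 25 °C with inhibitor range, stopped with yttrium silicate SPA beads, read after 8 h settling.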

The target in assay [3] is T3, Human PDE4B1 (Homo sapiens, UniProt Q07343, S133E/S654A/S659A/S661A).
T3 construct: His6 (N); thrombin cleavage site (N); made in house; host or cells: insect cells (baculovirus, pFastBac)
In words: PDE4B1 Scintillation Proximity Assay (SPA), inhibition of enzyme activity. The conditions noted are these: geometric mean of 2-7 determinations unless otherwise indicated (b: ≥8 determinations; c: single determination); 1 μM cAMP, 30 min at 25° C.; read-out: Human PDE4B FL; IC50. In short, it runs like this: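 His-tagged human PDE4B1 expressed in insect cells and purified by Ni-NTA and Source 15Q was assayed in 50 mM Tris pH 7.5, 1.3 mM MgCl2, 0.01% Brij. The substrate was 1 μM cAMP with ³H-cAMP tracer, at about 20% conversion, for 30 min at 25 °C. Yttrium silicate SPA beads stopped the reaction; counts were read after 8 h settling.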

Assay [4] has as its target T4, human PDE4D3 (Homo sapiens, UniProt Q08499).
T4 construct: His6 (C); made in house; host or cells: insect cells (baculovirus, pFastBac)
In words: PDE4D3 Scintillation Proximity Assay (SPA), inhibition of enzyme activity. The conditions noted are these: geometric mean of 2-7 determinations unless otherwise indicated (b: ≥8 determinations; c: single determination); 1 μM cAMP, 30 min at 25° C.; read-out: Human PDE4D FL; IC50. The essentials:
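Recombinant enzyme from insect cells, Ni-NTA and Q Sepharose purified, used at 10 pM in 50 mM Tris pH 7.5, 1.3 mM MgCl2, 0.01% Brij. Substrate 1 μM cAMP with 3H-cAMP tracer, ~20% conversion, inhibitor range, 30 min at 25°C. Stopped with yttrium silicate SPA beads and scintillation read.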

T1 sequence (Q08493 2-712): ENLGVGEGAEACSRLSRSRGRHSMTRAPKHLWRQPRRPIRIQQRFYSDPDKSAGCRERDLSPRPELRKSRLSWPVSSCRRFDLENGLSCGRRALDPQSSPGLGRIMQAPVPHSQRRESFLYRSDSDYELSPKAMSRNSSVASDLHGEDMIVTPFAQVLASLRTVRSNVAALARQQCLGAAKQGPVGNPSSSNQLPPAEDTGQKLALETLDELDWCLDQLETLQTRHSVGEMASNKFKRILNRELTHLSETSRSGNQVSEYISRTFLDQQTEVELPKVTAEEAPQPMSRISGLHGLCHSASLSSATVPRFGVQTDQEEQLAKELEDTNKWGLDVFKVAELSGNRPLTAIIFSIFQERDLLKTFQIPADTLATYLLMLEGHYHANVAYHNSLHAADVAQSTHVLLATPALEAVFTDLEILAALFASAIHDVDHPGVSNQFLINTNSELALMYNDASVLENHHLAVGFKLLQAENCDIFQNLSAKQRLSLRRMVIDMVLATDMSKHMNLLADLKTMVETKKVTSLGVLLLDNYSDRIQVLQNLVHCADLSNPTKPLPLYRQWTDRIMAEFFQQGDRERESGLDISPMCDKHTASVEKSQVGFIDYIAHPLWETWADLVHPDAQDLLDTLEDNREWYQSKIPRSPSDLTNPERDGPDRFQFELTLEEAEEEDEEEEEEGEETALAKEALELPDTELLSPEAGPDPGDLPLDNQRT
T2 sequence (P27815 2-825 isoform P27815-6): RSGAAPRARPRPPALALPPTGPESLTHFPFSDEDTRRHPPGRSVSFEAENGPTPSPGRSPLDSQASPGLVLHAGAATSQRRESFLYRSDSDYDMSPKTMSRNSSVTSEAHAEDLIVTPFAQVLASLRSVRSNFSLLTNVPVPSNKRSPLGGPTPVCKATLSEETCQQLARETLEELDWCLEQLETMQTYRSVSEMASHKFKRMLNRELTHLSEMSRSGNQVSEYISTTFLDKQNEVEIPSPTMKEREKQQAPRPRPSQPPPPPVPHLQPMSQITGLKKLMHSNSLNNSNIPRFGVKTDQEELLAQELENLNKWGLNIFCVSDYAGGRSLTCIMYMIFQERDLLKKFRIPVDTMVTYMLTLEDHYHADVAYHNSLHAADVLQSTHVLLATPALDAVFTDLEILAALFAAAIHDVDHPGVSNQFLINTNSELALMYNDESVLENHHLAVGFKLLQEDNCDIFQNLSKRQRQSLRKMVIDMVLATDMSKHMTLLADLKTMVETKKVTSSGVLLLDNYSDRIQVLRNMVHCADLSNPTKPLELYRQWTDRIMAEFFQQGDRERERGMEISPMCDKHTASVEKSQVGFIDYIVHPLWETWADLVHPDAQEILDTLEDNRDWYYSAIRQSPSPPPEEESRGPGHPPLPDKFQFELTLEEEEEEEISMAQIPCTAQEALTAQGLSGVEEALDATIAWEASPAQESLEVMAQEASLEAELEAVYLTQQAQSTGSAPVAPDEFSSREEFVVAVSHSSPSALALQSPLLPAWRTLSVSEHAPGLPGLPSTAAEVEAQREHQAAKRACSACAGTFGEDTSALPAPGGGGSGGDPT
T4 sequence (Q08499 186-808): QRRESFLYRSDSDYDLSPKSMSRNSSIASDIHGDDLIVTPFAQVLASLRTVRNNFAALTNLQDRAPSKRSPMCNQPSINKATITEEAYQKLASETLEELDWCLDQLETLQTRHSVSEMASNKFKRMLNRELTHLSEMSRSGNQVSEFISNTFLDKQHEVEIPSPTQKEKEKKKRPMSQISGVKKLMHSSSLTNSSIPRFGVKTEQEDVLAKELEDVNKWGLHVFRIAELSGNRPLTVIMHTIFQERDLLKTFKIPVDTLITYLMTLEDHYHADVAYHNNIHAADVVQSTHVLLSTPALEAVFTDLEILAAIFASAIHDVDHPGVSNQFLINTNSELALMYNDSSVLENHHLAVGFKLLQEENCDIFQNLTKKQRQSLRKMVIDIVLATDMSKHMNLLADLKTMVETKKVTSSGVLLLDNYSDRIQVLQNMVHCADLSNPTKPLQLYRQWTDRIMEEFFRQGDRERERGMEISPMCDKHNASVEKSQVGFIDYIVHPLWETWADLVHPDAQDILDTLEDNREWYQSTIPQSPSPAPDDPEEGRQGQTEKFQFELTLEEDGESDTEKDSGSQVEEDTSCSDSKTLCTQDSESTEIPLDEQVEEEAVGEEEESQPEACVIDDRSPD
T3 sequence (Q07343 122-736 S133E/S654A/S659A/S661A): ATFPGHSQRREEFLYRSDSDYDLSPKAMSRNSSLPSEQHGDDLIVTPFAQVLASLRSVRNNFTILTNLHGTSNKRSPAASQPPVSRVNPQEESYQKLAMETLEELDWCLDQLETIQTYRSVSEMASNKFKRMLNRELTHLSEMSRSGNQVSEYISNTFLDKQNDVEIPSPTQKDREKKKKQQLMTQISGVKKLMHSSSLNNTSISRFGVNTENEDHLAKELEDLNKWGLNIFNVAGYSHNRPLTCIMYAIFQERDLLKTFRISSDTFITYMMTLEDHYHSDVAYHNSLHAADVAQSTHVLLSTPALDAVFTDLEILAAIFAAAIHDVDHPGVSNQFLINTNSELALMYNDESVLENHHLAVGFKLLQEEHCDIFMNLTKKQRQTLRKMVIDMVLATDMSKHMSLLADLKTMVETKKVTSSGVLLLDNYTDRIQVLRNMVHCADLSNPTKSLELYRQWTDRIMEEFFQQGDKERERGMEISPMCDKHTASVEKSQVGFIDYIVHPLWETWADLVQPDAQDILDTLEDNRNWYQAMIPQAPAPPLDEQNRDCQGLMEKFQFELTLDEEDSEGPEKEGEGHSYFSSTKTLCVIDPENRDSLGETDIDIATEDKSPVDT

For `O=C(NC1CC1)c1nn2cc(F)cnc2c1-c1ccc2ocnc2c1` [Example 65, 3-(1,3-benzoxazol-5-yl)-N-cyclopropyl-6-fluoropyrazolo[1,5-a]pyrimidine-2-carboxamide], the IC50 was 0.128 µM in assay [1], 0.057 µM in assay [2], 0.059 µM in assay [3] and 1.16 µM in assay [4].

As to `O=C(c1nn2cc(F)cnc2c1-c1ccc(Cl)c(F)c1)N1CCC1` [Example 66, azetidin-1-yl[3-(4-chloro-3-fluorophenyl)-6-fluoropyrazolo[1,5-a]pyrimidin-2-yl]methanone], the IC50 in assay [1] was 0.009 µM; in assay [2], 0.002 µM; in assay [3], 0.007 µM; in assay [4], 0.079 µM.

On to `Cc1cc(C#N)c(F)cc1-c1c(C(=O)NC2CC2)nn2cc(F)cnc12` [Example 67, 3-(4-cyano-5-fluoro-2-methylphenyl)-N-cyclopropyl-6-fluoropyrazolo[1,5-a]pyrimidine-2-carboxamide], for which the IC50 was found to be 0.0268 µM in assay [1], 0.00346 µM in assay [2], 0.0164 µM in assay [3] and 0.111 µM in assay [4].

With `N#Cc1ccc(-c2c(C(=O)N3CCC3)nn3cc(F)cnc23)cc1F` [Example 68, 4-[2-(azetidin-1-ylcarbonyl)-6-fluoropyrazolo[1,5-a]pyrimidin-3-yl]-2-fluorobenzonitrile], the IC50 in assay [1] stood at 0.0329 µM; in assay [2], 0.00331 µM; in assay [3], 0.0168 µM; in assay [4], 0.261 µM.

`Cc1cc(C#N)c(F)cc1-c1c(C(=O)N2CCC2)nn2cccnc12` [Example 69, 4-[2-(azetidin-1-ylcarbonyl)pyrazolo[1,5-a]pyrimidin-3-yl]-2-fluoro-5-methylbenzonitrile]: the IC50 was 0.0361 µM in assay [1], 0.00337 µM in assay [2], 0.0173 µM in assay [3] and 0.0929 µM in assay [4].

Consider `Cc1ccc(-c2c(C(=O)NC3CC3)nn3cccnc23)cc1F` [Example 70, N-cyclopropyl-3-(3-fluoro-4-methylphenyl)pyrazolo[1,5-a]pyrimidine-2-carboxamide], for which the IC50 in assay [1] amounted to 0.017 µM; in assay [2], 0.00809 µM; in assay [3], 0.0236 µM; in assay [4] it was 0.68 µM.

`O=C(NC1CC1)c1nn2cccnc2c1-c1ccc(Cl)c(F)c1F` [Example 71, 3-(4-chloro-2,3-difluorophenyl)-N-cyclopropylpyrazolo[1,5-a]pyrimidine-2-carboxamide]: the IC50 amounted to 0.0111 µM in assay [1], 0.0102 µM in assay [2], 0.0255 µM in assay [3] and 0.797 µM in assay [4].

Turning to `O=C(NC1CC1)c1nn2cc(F)cnc2c1-c1cc(F)c(Cl)cc1F` [Example 72, 3-(4-chloro-2,5-difluorophenyl)-N-cyclopropyl-6-fluoropyrazolo[1,5-a]pyrimidine-2-carboxamide], the IC50 was 0.00518 µM in assay [1], 0.00077 µM in assay [2], 0.00302 µM in assay [3] and 0.043 µM in assay [4].

With `CNC(=O)c1nn2cccnc2c1-c1ccc(Cl)cc1` [Example 73, 3-(4-chlorophenyl)-N-methylpyrazolo[1,5-a]pyrimidine-2-carboxamide], the IC50 is 0.435 µM in assay [1], 0.663 µM in assay [2], 2.07 µM in assay [3] and above 28.5 µM in assay [4].

Consider `N#Cc1ccc(-c2c(C(=O)N3CCC3)nn3cccnc23)c(F)c1` [Example 75, 4-[2-(azetidin-1-ylcarbonyl)pyrazolo[1,5-a]pyrimidin-3-yl]-3-fluorobenzonitrile], for which the IC50 was 0.292 µM in assay [1], 0.745 µM in assay [2], 0.377 µM in assay [3] and above 28 µM in assay [4].
